According to patent publication US20080318987A1, “METHODS FOR MODULATING BONE FORMATION AND MINERALIZATION” (priority 2007, published 2008):

Key:
WWP1 = molecular target: T1, WWP1 (Mus musculus, UniProt Q8BZZ3); assay: OSE2 (osteocalcin) luciferase reporter assay, primary screen; type: cell-based, murine
T1 construct: The LKO.1 lentiviral vectors expressing RNAi against murine WWP1; endogenous in cells; host or cells: C3H10T1/2 (murine mesenchymal stem cell line)
Procedure: A cell-based reporter assay was modified for use as a primary screen. It is based on the inhibition by WWPI of Runx2 activation of a target promoter sequence from the osteocalcin gene. The murine mesenchymal stem cell line, C3H10T1/2 was maintained in DMEM+10% FBS. Cells were seeded overnight in a 12-wlel dish at 8×10^4 cells/well and transfected with the multimerized osteocalcin (OSE) luciferase (6×OSE2) reporter gene plasmid and combinations of expression constructs, as indicated, by Effectene (Qiagen). Total amounts of transfected DNA were kept constant by supplementing with control empty expression vector plasmids. All cells were cotransfected with pRL-TK (Promega) to control for transfection efficience. Forty-eight hours after transfection, cells were harvested and lysed in 1×Passive Lysis Buffer (Promega) and luciferase assays performed using the Dual-Luciferase Reporter Assay System (Promega).
Runx2 transactivation function in luciferase reporter assays was enhanced in WWPli cells. The LKO.1 lentiviral vectors expressing RNAi against murine WWP1, and GFP were cotransfected along with D8.9 and VSV-G plasmids into […] cells utilizing Effectene (Qiagen).

[1] = tested on: primary human mesenchymal stem cells (MSCs); assay: Human osteoblast differentiation in vitro (mineralization); type: cell-based; settings: compound included in the MSC osteoblast differentiation culture system
Procedure: This cell-based assay uses a 96-well format in which primary human mesenchymal stem cells (MSCs) are differentiated into osteoblasts following an established protocol that results in a high rate of differentiation. To induce osteoblast differentiation, MSC are seeded at a low density (3.1×10^3 cells per cm2) and cultured in media containing β-glycerolphosphate and ascorbic acid for fourteen days. For testing of candidate compounds, MSCs will be differentiated in the presence of the compounds for the duration of the 14-day culture period. Osteoblast differentiation is then assayed via a simple colorometric readout that reflects the levels of cellular alkaline phosphates (ALP), an enzyme present in differentiating osteoblasts but absent in MSCs. ALP levels are then normalized to cell number, which is measured by utilizing the Alamar blue assay. Mineralization can be assessed by staining with xylenol orange. The screen and the 96-well format will allow multiple compounds to be tested at various concentrations. A substantial number of compounds may be identified that are active at a nanomolar concentration.

T1 sequence (Q8BZZ3 whole entry): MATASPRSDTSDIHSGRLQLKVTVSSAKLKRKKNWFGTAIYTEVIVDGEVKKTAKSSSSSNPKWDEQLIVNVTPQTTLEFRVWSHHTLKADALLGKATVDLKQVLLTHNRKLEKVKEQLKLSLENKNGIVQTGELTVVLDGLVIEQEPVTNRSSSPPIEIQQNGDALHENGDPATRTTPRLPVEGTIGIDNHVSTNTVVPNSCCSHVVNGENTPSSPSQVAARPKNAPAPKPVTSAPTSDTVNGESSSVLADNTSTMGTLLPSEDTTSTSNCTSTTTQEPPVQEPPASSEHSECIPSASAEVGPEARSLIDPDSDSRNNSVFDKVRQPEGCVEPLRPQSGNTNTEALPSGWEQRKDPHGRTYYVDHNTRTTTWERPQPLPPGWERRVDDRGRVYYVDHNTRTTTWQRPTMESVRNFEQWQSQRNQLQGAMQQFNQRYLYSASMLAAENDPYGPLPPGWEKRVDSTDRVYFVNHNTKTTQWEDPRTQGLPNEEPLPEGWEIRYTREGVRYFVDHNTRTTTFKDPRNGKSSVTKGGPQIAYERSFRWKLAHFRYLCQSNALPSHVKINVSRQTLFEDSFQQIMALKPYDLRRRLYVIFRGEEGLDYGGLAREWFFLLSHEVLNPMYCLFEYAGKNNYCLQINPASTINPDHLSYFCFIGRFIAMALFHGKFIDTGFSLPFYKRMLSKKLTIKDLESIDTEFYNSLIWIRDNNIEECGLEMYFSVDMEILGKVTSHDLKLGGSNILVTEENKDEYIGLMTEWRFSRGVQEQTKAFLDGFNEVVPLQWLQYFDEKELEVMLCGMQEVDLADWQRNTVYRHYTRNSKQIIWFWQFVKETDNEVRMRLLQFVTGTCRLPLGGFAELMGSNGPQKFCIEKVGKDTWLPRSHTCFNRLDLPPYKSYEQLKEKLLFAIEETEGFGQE

## O=c1[nH]cc(CS(=O)(=O)Cc2c[nH]c(=O)[nH]c2=O)c(=O)[nH]1 [5,5′-(sulfonyldimethylene)diuracil]
WWP1; C3H10T1/2 cells, 6xOSE2 luciferase reporter
  Runx2 transactivation in the OSE2 reporter assay: increase Runx2 transactivation
WWP1; concluded from increased Runx2 transactivation
  WWP1 inhibition inferred from the OSE2 reporter assay: inhibit WWP1
[1]
  formation of mineralized nodules: substantially increased formation of mineralized nodules
